From US10202361B2, “Pyridazinones as herbicides” (E I DU PONT DE NEMOURS AND COMPANY, priority 2014, dated 2019)

Experiments:
Assay in all cases: Test E pre-/postemergence greenhouse herbicide test
Assay type in all cases: in vivo
[1] = system: crabgrass, large (large crabgrass Digitaria sanguinalis); details: Preemergence, scale 0 to 100
[2] = system: ragweed (common ragweed, Ambrosia elatior); details: Preemergence, scale 0 to 100
Summary of the method: (§1)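 Pre- and postemergence greenhouse spray; compound in non-phytotoxic solvent + surfactant. Pre: silt loam soil at planting. Post: 1- to 4-leaf plants, 2 to 18 cm, peat-based medium. Visual score 0–100 vs untreated controls at 14 to 21 d.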

[3] = system: ryegrass, Italian (Italian ryegrass, Lolium multiflorum); details: scale 0 to 100
Summary of the method: as §1

[4] = system: panicum, fall (fall panicum, Panicum dichotomiflorum); details: scale 0 to 100
Summary of the method: as §1

[5] = system: velvetleaf (Abutilon theophrasti); details: Preemergence, scale 0 to 100
Summary of the method: as §1

[6] = system: nightshade (eastern black nightshade, Solanum ptycanthum); details: Preemergence, scale 0 to 100
Summary of the method: as §1

[7] = system: field bindweed (Convolvulus arvensis); details: scale 0 to 100
Summary of the method: as §1

[8] = system: foxtail, giant (giant foxtail, Setaria faberii); details: Preemergence, scale 0 to 100
Summary of the method: as §1

[9] = system: poinsettia, wild (wild poinsettia, Euphorbia heterophylla); details: scale 0 to 100
[10] = system: nutsedge, yellow (yellow nutsedge, Cyperus esculentus); details: Preemergence, scale 0 to 100
[11] = system: cocklebur (common cocklebur, Xanthium strumarium); details: Preemergence, scale 0 to 100
[12] = system: goosegrass (Eleusine indica); details: Preemergence, scale 0 to 100

COc1cc(=O)n(-c2ccc(C(F)(F)F)cc2)nc1Cc1ccnc(C(F)(F)F)c1 [Compound 16, 5-methoxy-2-[4-(trifluoromethyl)phenyl]-6-[[2-(trifluoromethyl)-4-pyridinyl]methyl]-3(2H)-pyridazinone]
0: Plant response rating: Ragweed ([2]; 62 g ai/ha) | Plant response rating: Ragweed ([2]; 125 g ai/ha) | Plant response rating: Velvetleaf ([5]; 62 g ai/ha) | Plant response rating: Velvetleaf ([5]; 125 g ai/ha) | Plant response rating: Cocklebur ([11]; 125 g ai/ha) | Plant response rating: Cocklebur ([11]; 250 g ai/ha)
100: Plant response rating: Crabgrass, Large ([1]; 62 g ai/ha) | Plant response rating: Crabgrass, Large ([1]; 125 g ai/ha) | Plant response rating: Crabgrass, Large ([1]; 250 g ai/ha) | Plant response rating: Panicum, Fall ([4]; Preemergence, 250 g ai/ha) | Plant response rating: Nightshade ([6]; 125 g ai/ha) | Plant response rating: Nightshade ([6]; 250 g ai/ha) | Plant response rating: Field Bindweed ([7]; Preemergence, 250 g ai/ha) | Plant response rating: Foxtail, Giant ([8]; 250 g ai/ha)
60: Plant response rating: Poinsettia, Wild ([9]; Postemergence, 62 g ai/ha)
30: Plant response rating: Panicum, Fall ([4]; Postemergence, 62 g ai/ha) | Plant response rating: Field Bindweed ([7]; Preemergence, 125 g ai/ha)
90: Plant response rating: Panicum, Fall ([4]; Preemergence, 125 g ai/ha) | Plant response rating: Foxtail, Giant ([8]; 125 g ai/ha)
50: Plant response rating: Ryegrass, Italian ([3]; Preemergence, 250 g ai/ha) | Plant response rating: Panicum, Fall ([4]; Postemergence, 250 g ai/ha) | Plant response rating: Panicum, Fall ([4]; Preemergence, 62 g ai/ha) | Plant response rating: Velvetleaf ([5]; 250 g ai/ha) | Plant response rating: Field Bindweed ([7]; Postemergence, 62 g ai/ha) | Plant response rating: Goosegrass ([12]; 250 g ai/ha)
95: Plant response rating: Ragweed ([2]; 250 g ai/ha)
5: Plant response rating: Field Bindweed ([7]; Preemergence, 62 g ai/ha) | Plant response rating: Goosegrass ([12]; 62 g ai/ha)
40: Plant response rating: Ryegrass, Italian ([3]; Postemergence, 250 g ai/ha) | Plant response rating: Panicum, Fall ([4]; Postemergence, 125 g ai/ha) | Plant response rating: Nutsedge, Yellow ([10]; 250 g ai/ha)
35: Plant response rating: Poinsettia, Wild ([9]; Preemergence, 62 g ai/ha) | Plant response rating: Poinsettia, Wild ([9]; Preemergence, 125 g ai/ha)
75: Plant response rating: Field Bindweed ([7]; Postemergence, 250 g ai/ha) | Plant response rating: Foxtail, Giant ([8]; 62 g ai/ha) | Plant response rating: Poinsettia, Wild ([9]; Postemergence, 250 g ai/ha)
20: Plant response rating: Ryegrass, Italian ([3]; Postemergence, 62 g ai/ha) | Plant response rating: Ryegrass, Italian ([3]; Postemergence, 125 g ai/ha) | Plant response rating: Ryegrass, Italian ([3]; Preemergence, 62 g ai/ha) | Plant response rating: Ryegrass, Italian ([3]; Preemergence, 125 g ai/ha) | Plant response rating: Nutsedge, Yellow ([10]; 62 g ai/ha) | Plant response rating: Nutsedge, Yellow ([10]; 125 g ai/ha) | Plant response rating: Goosegrass ([12]; 125 g ai/ha)
65: Plant response rating: Field Bindweed ([7]; Postemergence, 125 g ai/ha) | Plant response rating: Poinsettia, Wild ([9]; Preemergence, 250 g ai/ha)
70: Plant response rating: Poinsettia, Wild ([9]; Postemergence, 125 g ai/ha)
80: Plant response rating: Nightshade ([6]; 62 g ai/ha)

COc1cc(=O)n(-c2ccc(F)cc2)nc1Cc1ccnc(C(F)(F)F)c1 [Compound 17, 2-(4-fluorophenyl)-5-methoxy-6-[[2-(trifluoromethyl)-4-pyridinyl]methyl]-3 (2H)-pyridazinone]
15: Plant response rating: Ryegrass, Italian ([3]; Postemergence, 250 g ai/ha) | Plant response rating: Panicum, Fall ([4]; Postemergence, 16 g ai/ha)
98: Plant response rating: Panicum, Fall ([4]; Preemergence, 62 g ai/ha) | Plant response rating: Nightshade ([6]; 62 g ai/ha) | Plant response rating: Nightshade ([6]; 125 g ai/ha) | Plant response rating: Nightshade ([6]; 250 g ai/ha) | Plant response rating: Field Bindweed ([7]; Preemergence, 250 g ai/ha) | Plant response rating: Goosegrass ([12]; 250 g ai/ha)
70: Plant response rating: Velvetleaf ([5]; 250 g ai/ha) | Plant response rating: Nutsedge, Yellow ([10]; 250 g ai/ha)
0: Plant response rating: Ragweed ([2]; 16 g ai/ha) | Plant response rating: Ragweed ([2]; 31 g ai/ha) | Plant response rating: Ryegrass, Italian ([3]; Postemergence, 16 g ai/ha) | Plant response rating: Ryegrass, Italian ([3]; Postemergence, 31 g ai/ha) | Plant response rating: Ryegrass, Italian ([3]; Postemergence, 62 g ai/ha) | Plant response rating: Ryegrass, Italian ([3]; Postemergence, 125 g ai/ha) | Plant response rating: Velvetleaf ([5]; 16 g ai/ha) | Plant response rating: Velvetleaf ([5]; 31 g ai/ha) | Plant response rating: Nightshade ([6]; 16 g ai/ha) | Plant response rating: Field Bindweed ([7]; Preemergence, 16 g ai/ha) | Plant response rating: Field Bindweed ([7]; Preemergence, 31 g ai/ha) | Plant response rating: Field Bindweed ([7]; Preemergence, 62 g ai/ha) | Plant response rating: Foxtail, Giant ([8]; 16 g ai/ha) | Plant response rating: Nutsedge, Yellow ([10]; 16 g ai/ha) | Plant response rating: Nutsedge, Yellow ([10]; 31 g ai/ha) | Plant response rating: Cocklebur ([11]; 16 g ai/ha) | Plant response rating: Cocklebur ([11]; 62 g ai/ha) | Plant response rating: Goosegrass ([12]; 16 g ai/ha)
25: Plant response rating: Ryegrass, Italian ([3]; Preemergence, 31 g ai/ha) | Plant response rating: Ryegrass, Italian ([3]; Preemergence, 62 g ai/ha) | Plant response rating: Velvetleaf ([5]; 125 g ai/ha)
5: Plant response rating: Field Bindweed ([7]; Preemergence, 125 g ai/ha)
75: Plant response rating: Ryegrass, Italian ([3]; Preemergence, 250 g ai/ha) | Plant response rating: Field Bindweed ([7]; Postemergence, 250 g ai/ha)
20: Plant response rating: Ryegrass, Italian ([3]; Preemergence, 16 g ai/ha) | Plant response rating: Panicum, Fall ([4]; Postemergence, 31 g ai/ha) | Plant response rating: Panicum, Fall ([4]; Postemergence, 62 g ai/ha) | Plant response rating: Velvetleaf ([5]; 62 g ai/ha) | Plant response rating: Poinsettia, Wild ([9]; Postemergence, 16 g ai/ha) | Plant response rating: Poinsettia, Wild ([9]; Preemergence, 16 g ai/ha) | Plant response rating: Poinsettia, Wild ([9]; Preemergence, 31 g ai/ha) | Plant response rating: Goosegrass ([12]; 31 g ai/ha)
80: Plant response rating: Ragweed ([2]; 250 g ai/ha) | Plant response rating: Panicum, Fall ([4]; Preemergence, 16 g ai/ha) | Plant response rating: Nightshade ([6]; 31 g ai/ha)
50: Plant response rating: Ryegrass, Italian ([3]; Preemergence, 125 g ai/ha) | Plant response rating: Panicum, Fall ([4]; Postemergence, 250 g ai/ha) | Plant response rating: Field Bindweed ([7]; Postemergence, 62 g ai/ha) | Plant response rating: Poinsettia, Wild ([9]; Postemergence, 250 g ai/ha) | Plant response rating: Nutsedge, Yellow ([10]; 125 g ai/ha)
30: Plant response rating: Panicum, Fall ([4]; Postemergence, 125 g ai/ha) | Plant response rating: Poinsettia, Wild ([9]; Postemergence, 31 g ai/ha) | Plant response rating: Poinsettia, Wild ([9]; Preemergence, 62 g ai/ha)
100: Plant response rating: Crabgrass, Large ([1]; 31 g ai/ha) | Plant response rating: Crabgrass, Large ([1]; 62 g ai/ha) | Plant response rating: Crabgrass, Large ([1]; 125 g ai/ha) | Plant response rating: Crabgrass, Large ([1]; 250 g ai/ha) | Plant response rating: Panicum, Fall ([4]; Preemergence, 125 g ai/ha) | Plant response rating: Panicum, Fall ([4]; Preemergence, 250 g ai/ha) | Plant response rating: Foxtail, Giant ([8]; 125 g ai/ha) | Plant response rating: Foxtail, Giant ([8]; 250 g ai/ha) | Plant response rating: Poinsettia, Wild ([9]; Preemergence, 250 g ai/ha)
40: Plant response rating: Field Bindweed ([7]; Postemergence, 16 g ai/ha) | Plant response rating: Field Bindweed ([7]; Postemergence, 31 g ai/ha) | Plant response rating: Foxtail, Giant ([8]; 31 g ai/ha) | Plant response rating: Poinsettia, Wild ([9]; Postemergence, 62 g ai/ha) | Plant response rating: Poinsettia, Wild ([9]; Postemergence, 125 g ai/ha) | Plant response rating: Poinsettia, Wild ([9]; Preemergence, 125 g ai/ha)
90: Plant response rating: Panicum, Fall ([4]; Preemergence, 31 g ai/ha)
60: Plant response rating: Field Bindweed ([7]; Postemergence, 125 g ai/ha) | Plant response rating: Goosegrass ([12]; 62 g ai/ha)
35: Plant response rating: Crabgrass, Large ([1]; 16 g ai/ha) | Plant response rating: Ragweed ([2]; 125 g ai/ha) | Plant response rating: Nutsedge, Yellow ([10]; 62 g ai/ha)
95: Plant response rating: Goosegrass ([12]; 125 g ai/ha)
65: Plant response rating: Foxtail, Giant ([8]; 62 g ai/ha)
10: Plant response rating: Ragweed ([2]; 62 g ai/ha)
